Test results published in patent US6258811A, “Methods for preventing, inhibiting or treating graft rejection reactions in graft-versus-host disease (GVHD) and organ transplantation” (Eisai Co., Ltd., priority 1996, dated 2001).

Assays:
patients = details: background; cited from earlier work
RAR-β [1] = target: T1, RAR-β (Homo sapiens, UniProt P10826); test: RAR-mediated transcriptional promotion activity, RAR-β; assay type: cell-based; details: ED30 of all-trans-retinoic acid taken as 1; 3 μM all-trans-retinoic acid = 100%
T1 sequence (P10826 1-455): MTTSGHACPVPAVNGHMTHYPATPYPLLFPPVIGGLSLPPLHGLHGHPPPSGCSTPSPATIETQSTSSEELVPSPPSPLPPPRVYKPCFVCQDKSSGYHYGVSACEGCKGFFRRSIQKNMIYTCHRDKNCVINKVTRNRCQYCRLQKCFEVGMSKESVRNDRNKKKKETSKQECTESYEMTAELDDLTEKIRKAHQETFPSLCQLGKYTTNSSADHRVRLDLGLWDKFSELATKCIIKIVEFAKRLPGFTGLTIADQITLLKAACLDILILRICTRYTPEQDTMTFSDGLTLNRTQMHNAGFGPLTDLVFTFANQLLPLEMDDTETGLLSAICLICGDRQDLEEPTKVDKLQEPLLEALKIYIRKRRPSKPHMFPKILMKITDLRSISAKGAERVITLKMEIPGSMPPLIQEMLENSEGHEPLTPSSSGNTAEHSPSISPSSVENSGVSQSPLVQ
From the text: (§1) Retinoic acid receptor (RAR) binding assay and RAR-mediated transcriptional promotion activity of compound represented by formula (I): […]

RAR-α = target: T2, RAR-α (Homo sapiens, UniProt P10276); test: RAR-mediated transcriptional promotion activity, RAR-α; assay type: cell-based; details: ED30 of all-trans-retinoic acid taken as 1; 3 μM all-trans-retinoic acid = 100%
T2 sequence (P10276 1-462): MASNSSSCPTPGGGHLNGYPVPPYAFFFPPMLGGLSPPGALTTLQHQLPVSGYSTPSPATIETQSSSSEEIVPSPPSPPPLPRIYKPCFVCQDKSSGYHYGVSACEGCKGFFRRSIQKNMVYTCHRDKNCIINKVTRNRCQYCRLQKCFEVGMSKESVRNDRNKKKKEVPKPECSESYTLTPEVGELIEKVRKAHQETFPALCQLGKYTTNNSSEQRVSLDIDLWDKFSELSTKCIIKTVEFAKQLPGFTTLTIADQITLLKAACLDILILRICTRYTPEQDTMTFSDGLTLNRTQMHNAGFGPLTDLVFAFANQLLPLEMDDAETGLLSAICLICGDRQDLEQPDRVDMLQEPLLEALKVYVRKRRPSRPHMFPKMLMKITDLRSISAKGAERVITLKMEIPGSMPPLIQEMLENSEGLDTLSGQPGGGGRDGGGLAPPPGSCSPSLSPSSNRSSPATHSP
From the text: as §1

RAR-γ = target: T3, RAR-γ (Homo sapiens, UniProt P13631); test: RAR-mediated transcriptional promotion activity, RAR-γ; assay type: cell-based; details: ED30 of all-trans-retinoic acid taken as 1; 3 μM all-trans-retinoic acid = 100%
T3 sequence (P13631 1-454): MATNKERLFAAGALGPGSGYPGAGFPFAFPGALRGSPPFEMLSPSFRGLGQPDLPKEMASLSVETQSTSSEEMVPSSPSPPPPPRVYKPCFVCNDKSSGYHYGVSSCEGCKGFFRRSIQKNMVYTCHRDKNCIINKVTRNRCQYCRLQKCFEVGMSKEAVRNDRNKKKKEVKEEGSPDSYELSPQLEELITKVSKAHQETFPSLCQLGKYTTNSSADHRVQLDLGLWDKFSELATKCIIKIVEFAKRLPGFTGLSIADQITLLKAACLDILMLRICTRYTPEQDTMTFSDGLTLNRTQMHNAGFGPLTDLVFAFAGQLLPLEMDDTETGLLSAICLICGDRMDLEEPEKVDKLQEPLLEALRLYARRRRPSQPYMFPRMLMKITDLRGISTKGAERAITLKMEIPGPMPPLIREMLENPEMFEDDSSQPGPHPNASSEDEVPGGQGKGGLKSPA
From the text: as §1

[2] = system: serum antiDNA antibody titer (IgG class); test: Chronic GVHD model: serum antiDNA antibody titer (ELISA); assay type: in vivo, mice (BDF1 hosts, DBA/2 donors); details: oral, once a day, two weeks after cell transfer
From the text: (§2) A graft-versus-host disease (GVHD) model experiment was effected in accordance with the method reported by Durei et al. (J. Clin. Invest., 94, 1333 1994.).
(§3) As the indication of an acute GVHD model (1), use was made of the cytotoxic T cell activity of a donor on a host. As the indication of a chronic GVHD model (2), use was made of the blood antiDNA antibody titer.
In the transplantation, BDF1 mice (H-2b/d) and DBA/2 mice (H-2d) were employed respectively as the hosts and donors. 5×10^7 /mouse of donors' spleen cells were transferred into the hosts via the tail vein. 4-{2-[5-(4,7-Dimethylbenzofuran-2-yl)pyrrolyl]}benzoic acid was dissolved in a 0.5% aqueous solution of methylcellulose and then orally administered to the hosts once a day from the first day of the cell transfer to the day before the blood sampling. The 0.5% aqueous solution of methylcellulose alone was similarly administered to the control group. Two weeks after the cell transfer, the blood of each host animal was sampled and the serum antiDNA antibody titer (IgG class) was measured by the ELISA method.

P-815(H-2d) = test: Acute GVHD model: cytotoxic T cell activity of donor on host; assay type: in vivo, mice (BDF1 hosts, C57BL/6N donors); details: oral, once a day, 12 to 13 days after cell transfer
From the text: as §2, §3
In the transplantation, BDF1 mice (H-2b/d) and C57BL/6N mice (H-2b) were employed respectively as the hosts and donors. 5×10^7 /mouse of donors' spleen cells were transferred into the hosts via the tail vein. 4-{2-[5-(4,7-Dimethylbenzofuran-2-yl)pyrrolyl]}benzoic acid (compound A) was suspended in a 0.5% aqueous solution of methylcellulose and then orally administered to the hosts once a day from the first day of the cell transfer to the day before the measurement of the cytotoxic T cell activity. The 0.5% aqueous solution of methylcellulose alone was similarly administered to the control group. 12 to 13 days after the cell transfer, the spleen of each host animal was taken out and a suspension of the spleen cells to be used as effector cells was prepared. As the target cells, use was made of P-815(H-2d) which were cultured together with the effector cells for 4 hours. The cytotoxicity (%) was expressed as the percentage of ^51 Cr liberated into the culture supernatant during this culture time to the total radioactivity.

immune system = details: background; cited from earlier work
chronic GVHD = details: cyclosporin A and prednisolone, bone marrow transplantation patients; cited from earlier work
RAR-β [3] = target: T1, RAR-β; test: Receptor binding assay, RAR-β
From the text: as §1

rat adjuvant arthritis = details: Science 221, 756, 1983; cited from earlier work

Transcriptional promotion activity, Relative ED30, RAR-β (RAR-β [1]) | Transcriptional promotion activity, Relative ED30, RAR-α (RAR-α) | Transcriptional promotion activity, Relative ED30, RAR-γ (RAR-γ) | Compound | also measured
 |  |  | CN(Cc1cnc2nc(N)nc(N)c2n1)c1ccc(C(=O)N[C@@H](CCC(=O)O)C(=O)O)cc1 [methotrexate] | side effects (patients): bone marrow depression, hepatic/renal function disorder, mucosal disorder, psychoneurosis, interstitial pneumonia, pulmonary fibrosis, etc.
1.4 | 0.21 | 19 | CC1(C)CCC(C)(C)c2nc(-c3ccc(-c4ccc(C(=O)O)cc4)[nH]3)cnc21 | 
 |  |  | Cc1ccc(C)c2oc(-c3ccc(-c4ccc(C(=O)O)cc4)[nH]3)cc12 [compound A, 4-{2-[5-(4,7-Dimethylbenzofuran-2-yl)pyrrolyl]}benzoic acid] | minimal effective dose ([2]; Mus musculus, 336 h, read-out: dose from which serum antiDNA antibody titer was inhibited dose-dependently): ≥ 0.3 mg/kg; serum antiDNA antibody titer [2]: strongly inhibited the serum antiDNA antibody titer dose-dependently; minimal effective dose (P-815(H-2d); Mus musculus, P815, read-out: dose from which induction of the cytotoxic T cell activity was inhibited dose-dependently): ≥ 0.1 mg/kg; induction of the cytotoxic T cell activity (P-815(H-2d)): strongly inhibited the induction of the cytotoxic T cell activity dose-dependently
 |  |  | CC1=C(/C=C/C(C)=C/C=C/C(C)=C/C(=O)O)C(C)(C)CCC1 [retinoic acid] | effect on the immune system (immune system): suppressive effect on the immune system
 |  |  | C[C@]12C=CC(=O)C=C1CC[C@@H]1[C@@H]2[C@@H](O)C[C@@]2(C)[C@H]1CC[C@]2(O)C(=O)CO [prednisolone] | side effects (patients): induced infectious diseases, peptic ulcer, etc.; effect on chronic GVHD (chronic GVHD): no satisfactory effect
 |  |  | C=CC[C@@H]1/C=C(\C)C[C@H](C)C[C@H](OC)[C@H]2O[C@@](O)(C(=O)C(=O)N3CCCC[C@H]3C(=O)O[C@H](/C(C)=C/[C@@H]3CC[C@@H](O)[C@H](OC)C3)[C@H](C)[C@@H](O)CC1=O)[C@H](C)C[C@@H]2OC [tacrolimus (FK 506), tacrolimus] | side effects (patients): renal function disorder, shock, elevation of blood pressure, heart failure, pancreatitis,hemolytic-uremic syndrome, thrombotic thrombopenia, purpura and hyperglycemia
2.8 | 0.39 | 31 | Cc1ccc(C)c2c(F)c(-c3ccc(-c4ccc(C(=O)O)cc4)[nH]3)oc12 | 
 |  |  | O=C(O)c1ccc(-c2ccc(-c3cc4c(Cl)ccc(Cl)c4o3)[nH]2)cc1 [drawing 8] | IC50 (RAR-β [3]): 500 nM
160 | 1.0 | 1400 | O=C(O)c1ccc(-c2ccc(-c3cc4c(Cl)ccc(Cl)c4o3)[nH]2)cc1 [drawing 15] | 
24 | 0.26 | 120 | CCc1ccc(C)c2cc(-c3ccc(-c4ccc(C(=O)O)cc4)[nH]3)oc12 | 
 |  |  | Cn1cnc([N+](=O)[O-])c1Sc1ncnc2nc[nH]c12 [azathioprine] | side effects (patients): bone marrow depression, hepatic disorder, pancreatitis, digestive tract symptoms, cardiopalmus and respiratory disorder
 |  |  | CC1=C(/C=C/C(C)=C/C=C/C(C)=C\C(=O)O)C(C)(C)CCC1 [13-cis-retinoic acid] | secondary inflammation in rat adjuvant arthritis (rat adjuvant arthritis): significantly suppressed
91 | 0.33 | 790 | O=C(O)c1ccc(-c2ccc(-c3cc4c(F)ccc(Cl)c4o3)[nH]2)cc1 | 
8.1 | 0.33 | 95 | O=C(O)c1ccc(-c2ccc(-c3cc4c(C(F)(F)F)ccc(F)c4o3)[nH]2)cc1 | 

Compound | Transcriptional promotion activity, Relative ED30, RAR-β (RAR-β [1]) | Transcriptional promotion activity, Relative ED30, RAR-α (RAR-α) | Transcriptional promotion activity, Relative ED30, RAR-γ (RAR-γ) | also measured
Cc1ccc(C)c2oc(-c3ccc(-c4ccc(C(=O)O)cc4)[nH]3)cc12 [drawing 14] | 13 | 0.4 | 191 | 
